The subject of the test is M. tuberculosis H37Rv growth inhibition. Description: Mycobacterium tuberculosis H37Rv growth inhibition, putative kinase inhibitor library, confirmatory dose response (AID 2842).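 Further: bacteria incubated one week before Alamar blue readout.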

SMILES strings stand for the structures. Converted amounts (≈) assume the structure as drawn.

Turning to `COc1ccc(N2CC(c3nc4ccccc4n3Cc3ccccc3C)CC2=O)cc1` (stereo unspecified), the IC90 was 20.1 µg/mL (≈ 48.8 µM).
Turning to `COc1cc(C(=O)Nc2nnc(-c3ccc(C)cc3C)o2)cc(OC)c1OC`, the 90% effect concentration (IC90) was 2.53 µg/mL (≈ 6.6 µM).
Consider `Cc1ccc(C)c(-c2nnc(NC(=O)c3ccc(S(=O)(=O)N4CCc5ccccc54)cc3)o2)c1`, for which the 90% effect concentration (IC90) is 12.4 µg/mL (≈ 26.1 µM).
With `Fc1cccc2sc(N3CCCC3)nc12`, the IC90 was 86.3 µg/mL (≈ 388 µM).
For `O=C(Nc1nnc(-c2cc(Cl)ccc2Cl)o1)c1ccc2c(c1)CCCC2` the value was 25.8 µg/mL (≈ 66.5 µM); for `CSc1cccc2sc(Nc3cccc(Cl)c3)nc12`, 5.38 µg/mL (≈ 17.5 µM); for `COc1ccccc1-c1cnn2c(Nc3ccc(C)c(C)c3)cc(C)nc12`, 14.4 µg/mL (≈ 40.3 µM).
Regarding `Cc1ccc(-c2nnc(NC(=O)c3ccccc3F)o2)c(C)c1`, the IC90 is 1.31 µg/mL (≈ 4.21 µM).
Regarding `O=C(Nc1cccc(C(F)(F)F)c1)NC1CC(=O)N(c2cccc(F)c2)C1` (stereo unspecified), the concentration for an effect of 90% (IC90) is 8.52 µg/mL (≈ 22.3 µM).
For `CCCCc1ccc(NCCn2c(C)c(C)n3c4c(=O)[nH]c(=O)n(C)c4nc23)cc1` the value was 12.6 µg/mL (≈ 30.8 µM); for `O=C(Nc1nnc(-c2ccc(Cl)s2)o1)c1ccc(Br)s1`, 11.6 µg/mL (≈ 29.8 µM); for `O=C(NNc1nc2c(Cl)cccc2s1)c1coc2ccccc2c1=O`, 11.1 µg/mL (≈ 29.9 µM).
On to `Cc1ccc(C)c(-c2nnc(NC(=O)c3cccc([N+](=O)[O-])c3)o2)c1`, for which the IC90 was 29.6 µg/mL (≈ 87.4 µM).
On to `Cc1[nH]c2ccccc2c1SCCNC(=O)c1cc2ccccc2oc1=O`, for which the IC90 is less than 0.2 µg/mL.
For `Cc1ccc(-c2nnc(NC(=O)c3ccc(S(=O)(=O)N4CCC(C)CC4)cc3)o2)c(C)c1` the value was 46.7 µg/mL (≈ 103 µM); for `CCOC(=O)N1CCN(c2ncnc3c2cnn3-c2ccc(C)c(Cl)c2)CC1`, 12.2 µg/mL (≈ 30.5 µM); for `O=C(Nc1nnc(-c2ccc(F)cc2)o1)c1ccco1`, 2.84 µg/mL (≈ 10.4 µM).
The result for `Cc1cc(Nc2ccc(C)c(Cl)c2)n2ncc(-c3ccccc3)c2n1` reads 3.35 µg/mL (≈ 9.6 µM).
For `N=C1SC(c2ccccc2)C(=O)N1c1nccs1` (stereo unspecified), the 90% effect concentration (IC90) was 30.1 µg/mL (≈ 109 µM).
Regarding `COc1ccc(OCC(=O)Nc2ccc(I)cc2C)cc1`, the IC90 is 3.2 µg/mL (≈ 8.06 µM).
As for `Cc1ccccc1C(=O)Nc1nnc(-c2ccccn2)o1`, the IC90 is 15.2 µg/mL (≈ 54.2 µM).
Turning to `COc1ccc(-c2nnc3c4ccccc4n(Cc4cccc(C)c4)cc2-3)cc1`, the IC90 is 13.4 µg/mL (≈ 35.3 µM).
For `Nc1ncnc(Sc2nc3ccccc3[nH]2)c1[N+](=O)[O-]`, the IC90 is 17.1 µg/mL (≈ 59.2 µM).
Regarding `COc1cc2c(=O)c(C(=O)c3ccc(Cl)cc3)cn(Cc3ccccc3F)c2cc1OC`, the IC90 is 45 µg/mL (≈ 99.5 µM).
As for `COc1cc2c3nnc(-c4ccc(C)cc4)c-3cn(Cc3cccc(C)c3)c2cc1OC`, the IC90 was 28.3 µg/mL (≈ 66.9 µM).
Take `Cc1ccc(C)c(-c2nnc(NC(=O)c3ccc(S(=O)(=O)N(C)c4ccccc4)cc3)o2)c1`: the IC90 was 13.3 µg/mL (≈ 28.8 µM).

The IC90 is the concentration at which the effect reaches the 90% level.

These data come from PubChem BioAssay AID2842 (Southern Research Institute, 2010).
